These results are taken from PubChem BioAssay AID330 (DTP/NCI, 2004).

Where “and” joins values, the source holds several entries; their conditions need not be identical. Equal values may be shown once. Inconclusive results and toxic doses are left out.

This experiment deals with P388 leukemia ip, CD2F1 mice, survival T/C. Briefly: NCI In Vivo Anticancer Drug Screen. Data for tumor model P388 Leukemia (intraperitoneal) in CD2F1 (CDF1) mice. The conditions noted are these: endpoint: median survival time, higher = longer survival. Put shortly:
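Mice carrying the transplanted tumor received test compound or vehicle. Survival was recorded in each group, and the value is the treated-group measurement divided by that of the vehicle-treated control group.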

[1] abbreviates: dose: 15.0 mg/kg/injection, schedule: Q01DX005 (ip), vehicle: saline with Tween-80.
Where [2] appears, read: dose: 30.0 mg/kg/injection, schedule: Q01DX005 (ip), vehicle: saline with Tween-80.
Where [3] appears, read: dose: 60.0 mg/kg/injection, schedule: Q01DX005 (ip), vehicle: saline with Tween-80.
The mark [4] stands for this setting: dose: 50.0 mg/kg/injection, schedule: Q01DX009 (ip), vehicle: saline.
[5] abbreviates: dose: 100.0 mg/kg/injection, schedule: Q01DX009 (ip), vehicle: saline.
Setting [6] is: dose: 200.0 mg/kg/injection, schedule: Q01DX009 (ip), vehicle: saline.
Where [7] appears, read: dose: 50.0 mg/kg/injection, schedule: Q01DX005 (ip), vehicle: Klucel (hydroxypropylcellulose) (HPC).
[8] abbreviates: dose: 100.0 mg/kg/injection, schedule: Q01DX005 (ip), vehicle: Klucel (hydroxypropylcellulose) (HPC).
The mark [9] stands for this setting: dose: 25.0 mg/kg/injection, schedule: Q01DX009 (ip), vehicle: saline.
Setting [10] is: dose: 50.0 mg/kg/injection, schedule: Q01DX009 (ip), vehicle: Klucel (hydroxypropylcellulose) (HPC).
The mark [11] stands for this setting: dose: 100.0 mg/kg/injection, schedule: Q01DX009 (ip), vehicle: Klucel (hydroxypropylcellulose) (HPC).
Where [12] appears, read: dose: 200.0 mg/kg/injection, schedule: Q01DX009 (ip), vehicle: Klucel (hydroxypropylcellulose) (HPC).
Setting [13] is: dose: 6.25 mg/kg/injection, schedule: Q01DX009 (ip), vehicle: saline with Tween-80.

As for `O=C(O)c1cccnc1C(=O)Nc1cccc2ccccc12`, the T/C was 102 % of control under setting [1]; 98 % of control under setting [2]; 99 % of control (2×) and 93 % of control under setting [3]; 86 % of control and 92 % of control (dose: 240.0 mg/kg/injection, schedule: Q01DX005 (ip), vehicle: saline with Tween-80).

For the compound `O=C(CCc1ccc(O)cc1)c1c(O)cc(O)cc1O`, the T/C runs as follows: (dose: 50.0 mg/kg/injection, schedule: Q01DX005 (ip), vehicle: saline with Tween-80) 107 % of control; (dose: 50.0 mg/kg/injection, schedule: Q01DX009 (ip), vehicle: saline + alcohol) 112 % of control; (dose: 100.0 mg/kg/injection, schedule: Q01DX005 (ip), vehicle: saline with Tween-80) 108 % of control; (dose: 100.0 mg/kg/injection, schedule: Q01DX009 (ip), vehicle: saline + alcohol) 117 % of control; (dose: 200.0 mg/kg/injection, schedule: Q01DX005 (ip), vehicle: saline with Tween-80) 114 % of control; (dose: 200.0 mg/kg/injection, schedule: Q01DX009 (ip), vehicle: saline + alcohol) 108 % of control. Moreover, the T/C (dose: 400.0 mg/kg/injection, schedule: Q01DX005 (ip), vehicle: saline with Tween-80) is 114 % of control.

On to `CCCCCCCCCCCCOC(=O)CN=C=O`, for which the T/C under setting [4] was 100 % of control and 101 % of control; the T/C under setting [5] was 100 % of control; the T/C under setting [6] was 107 % of control and 89 % of control.

Regarding `CC(NNC(=S)N1CCCCCC1)c1cccc[n+]1[O-]` (stereo not drawn), the T/C reads like this: under setting [7], 101 % of control; under setting [8], 101 % of control; (dose: 200.0 mg/kg/injection, schedule: Q01DX005 (ip), vehicle: Klucel (hydroxypropylcellulose) (HPC)) 93 % of control.

In the case of `CC1(C)NC(C(=O)O)Cc2c1[nH]c1ccccc21` (stereo not drawn), the T/C is 102 % of control under setting [9], 91 % of control under setting [4] and 94 % of control under setting [5].

In the case of `CC1=NCc2nnn(Cc3ccccc3)c2N1`, the T/C is 100 % of control under setting [10], 95 % of control under setting [11] and 103 % of control under setting [12].

Regarding `O=C1Nc2ccc(Br)cc2/C1=c1/sc2nc3ccccc3n2c1=O`, the T/C runs as follows: (dose: 1.56 mg/kg/injection, schedule: Q01DX005 (ip), vehicle: saline with Tween-80) 100 % of control; (dose: 3.12 mg/kg/injection, schedule: Q01DX005 (ip), vehicle: saline with Tween-80) 98 % of control; (dose: 6.25 mg/kg/injection, schedule: Q01DX005 (ip), vehicle: saline with Tween-80) 100 % of control; under setting [7], 87 % of control; under setting [8], 94 % of control.

`CCOc1ccc(O)c(CN2CCN(Cc3cc(OCC)ccc3O)CC2)c1`: the T/C under setting [1] is 100 % of control; the T/C under setting [2] is 100 % of control; the T/C under setting [3] is 98 % of control and 124 % of control.

As for `Cc1ccc(C)c(NC(=O)Nc2ccc(C(=O)O)c(O)c2)c1`, the T/C is 101 % of control under setting [10], 101 % of control under setting [11] and 114 % of control under setting [12].

In the case of `COc1cccc2c1C(=O)c1c(O)c3c(c(O)c1C2=O)C[C@@](O)(/C(C)=N/NC(=O)c1ccc(O)cc1)C[C@@H]3OC1CC(N)C(O)C(C)O1` (stereo partly drawn), the T/C is 115 % of control (dose: 0.12 mg/kg/injection, schedule: Q01DX009 (ip), vehicle: water); 111 % of control (dose: 0.25 mg/kg/injection, schedule: Q01DX009 (ip), vehicle: water); 152 % of control and 157 % of control (dose: 0.5 mg/kg/injection, schedule: Q01DX009 (ip), vehicle: water); 160 % of control (dose: 1.0 mg/kg/injection, schedule: Q01DX009 (ip), vehicle: water); 160 % of control and 180 % of control (dose: 2.0 mg/kg/injection, schedule: Q01DX009 (ip), vehicle: water); 161 % of control and 171 % of control (dose: 4.0 mg/kg/injection, schedule: Q01DX009 (ip), vehicle: water). In addition, the T/C (dose: 10.0 mg/kg/injection, schedule: Q01DX001 (ip), vehicle: water) was 174 % of control; the T/C (dose: 16.0 mg/kg/injection, schedule: Q01DX009 (ip), vehicle: water) was 111 % of control; the T/C (dose: 20.0 mg/kg/injection, schedule: Q01DX001 (ip), vehicle: water) was 117 % of control.

Regarding `CCOC(=O)C(=CN(C)c1ccc(Cl)cc1)C(=O)OCC`, the T/C is, setting by setting: under setting [13], 102 % of control; (dose: 12.5 mg/kg/injection, schedule: Q01DX009 (ip), vehicle: saline with Tween-80) 94 % of control; (dose: 25.0 mg/kg/injection, schedule: Q01DX009 (ip), vehicle: saline with Tween-80) 103 % of control; under setting [6], 97 % of control.

Take `O=C(/C=C/c1cccc([N+](=O)[O-])c1)c1ccccc1`: the T/C was 99 % of control (dose: 50.0 mg/kg/injection, schedule: Q01DX009 (ip), vehicle: saline with Tween-80); 92 % of control (dose: 100.0 mg/kg/injection, schedule: Q01DX009 (ip), vehicle: saline with Tween-80); 92 % of control (dose: 200.0 mg/kg/injection, schedule: Q01DX009 (ip), vehicle: saline with Tween-80); 100 % of control (dose: 400.0 mg/kg/injection, schedule: Q01DX009 (ip), vehicle: saline with Tween-80).

Take `CCCCCCCCCCCCCCC[N+]1([O-])CCCCC1`: the T/C was 101 % of control (dose: 12.5 mg/kg/injection, schedule: Q01DX009 (ip), vehicle: saline); 95 % of control under setting [9]; 99 % of control and 101 % of control under setting [4].

As for `C[C@]12C=CC(=O)C=C1CC[C@H]1[C@@H]3C[C@@H](O)[C@](O)(C(=O)CO)[C@@]3(C)C[C@H](O)[C@@]12F`, the T/C by setting is: (dose: 100.0 mg/kg/injection, schedule: Q04DX003 (ip), vehicle: Klucel (hydroxypropylcellulose) (HPC)) 100 % of control; (dose: 200.0 mg/kg/injection, schedule: Q04DX003 (ip), vehicle: Klucel (hydroxypropylcellulose) (HPC)) 90 % of control.

For the compound `CC(CC(=O)c1ccccc1)=NCC(O)CN=C(C)CC(=O)c1ccccc1.[Cu]` (stereo not drawn), the T/C reads like this: (dose: 12.5 mg/kg/injection, schedule: Q04DX003 (ip), vehicle: saline with Tween-80) 96 % of control; (dose: 25.0 mg/kg/injection, schedule: Q04DX003 (ip), vehicle: saline with Tween-80) 93 % of control; (dose: 50.0 mg/kg/injection, schedule: Q04DX003 (ip), vehicle: saline with Tween-80) 96 % of control; (dose: 100.0 mg/kg/injection, schedule: Q04DX003 (ip), vehicle: saline with Tween-80) 94 % of control and 98 % of control; (dose: 200.0 mg/kg/injection, schedule: Q04DX003 (ip), vehicle: saline with Tween-80) 101 % of control and 92 % of control; (dose: 400.0 mg/kg/injection, schedule: Q04DX003 (ip), vehicle: saline with Tween-80) 96 % of control.

Consider `C/C=C/c1cccc(OC)c1OC`, for which the T/C (dose: 100.0 mg/kg/injection, schedule: Q01DX001 (ip), vehicle: saline with Tween-80) is 108 % of control; the T/C (dose: 200.0 mg/kg/injection, schedule: Q01DX001 (ip), vehicle: saline with Tween-80) was 120 % of control; the T/C (dose: 400.0 mg/kg/injection, schedule: Q01DX001 (ip), vehicle: saline with Tween-80) is 110 % of control.

Turning to `C=CS(=O)(=O)OCCCl`, the T/C was 108 % of control and 109 % of control and 111 % of control under setting [13]; 117 % of control (dose: 18.75 mg/kg/injection, schedule: Q01DX009 (ip), vehicle: saline with Tween-80).

In the case of `O=c1c(N=Nc2ccccc2)c[nH]n1-c1ccccc1`, the T/C runs as follows: (dose: 62.5 mg/kg/injection, schedule: Q01DX009 (ip), vehicle: saline with Tween-80) 97 % of control; (dose: 125.0 mg/kg/injection, schedule: Q01DX009 (ip), vehicle: saline with Tween-80) 97 % of control; (dose: 250.0 mg/kg/injection, schedule: Q01DX009 (ip), vehicle: saline with Tween-80) 94 % of control.

`CCN(CC)c1csc2c3ccccc3nc(C)[n+]12`: the T/C by setting is: (dose: 100.0 mg/kg/injection, schedule: Q04DX003 (ip), vehicle: saline + Tween-80 + alcohol) 104 % of control; (dose: 200.0 mg/kg/injection, schedule: Q04DX003 (ip), vehicle: saline + Tween-80 + alcohol) 94 % of control; (dose: 400.0 mg/kg/injection, schedule: Q04DX003 (ip), vehicle: saline + Tween-80 + alcohol) 105 % of control.
